Reference: US20260042764A1, “COMPOSITIONS AND METHODS FOR INHIBITION OF KRAS” (TheRas, Inc., priority 2022, published 2026)

Legend:
[1] = molecular target: T1, Avi-KRAS G12D (1-169) GppNHp/RAF1 RBD-3xFLAG (52-151) (Homo sapiens, UniProt P01116, G12D); experiment: Raf1-KRAS G12D-GppNHP disruption HTRF assay (Biological Example 1); type: binding; details: KRAS G12D-GppNHp/RAF1 RBD HTRF
T1 construct: Avi-KRAS G12D (1-169)
Summary of the method: (§1)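 Using HTRF, the loss of KRAS–effector RAF1 complex was quantified in 50 mM Tris pH 7.5 buffer with 100 mM NaCl and 0.1% BSA. The protein step and reagent step ran 1 h each at room temperature. Activity normalized with DMSO taken as 100%.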

[2] = molecular target: T2, Avi-KRAS G12V (2-169) GTP/RAF1 RBD-3xFLAG (51-131) (Homo sapiens, UniProt P01116, G12V); experiment: Raf1-KRAS G12V-GTP disruption HTRF assay (Biological Example 3); type: binding; details: KRAS G12V, GTP-loaded
T2 construct: Avi-KRAS G12V (2-169)
Summary of the method: (§2)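 50 nM Avi-KRAS (2-169) GTP/RAF1 RBD complex; 75 nM RBD-Avi; pH 7.5 Tris buffer, 10% DMSO; cpd 30 μM top, 3x, 10 pts; 1 h RT, 700 rpm; HTRF, % of DMSO.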

[3] = molecular target: T3, Avi-KRAS G12V (1-169) GppNHp/RAF1 RBD-3xFLAG (52-151) (Homo sapiens, UniProt P01116, G12V); experiment: Raf1-KRAS G12V-GppNHP disruption HTRF assay (Biological Example 1); type: binding; details: KRAS G12V-GppNHp/RAF1 RBD HTRF
T3 construct: Avi-KRAS G12V (1-169)
Summary of the method: as §1

SW620 cells (KRAS G12V) = experiment: Cell-based pERK HTRF assay in SW620 cell (Biological Example 4); details: Homo sapiens, SW-620, SW620 (KRAS G12V) cells
Summary of the method: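 Read-out: HTRF pERK signal (excitation 320 nm, emission 615 nm) from lysates of SW620 cells after 4 h compound exposure. Dose range was 9 points, half-log steps from 1 μM, in 0.25% DMSO; antibody incubation ran 4–24 h at room temperature.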

[4] = molecular target: T4, Avi-KRAS G12C (2-169) GTP/RAF1 RBD-3xFLAG (51-131) (Homo sapiens, UniProt P01116, G12C); experiment: Raf1-KRAS G12C-GTP disruption HTRF assay (Biological Example 3); type: binding; details: KRAS G12C, GTP-loaded
T4 construct: Avi-KRAS G12C (2-169)
Summary of the method: as §2

[5] = molecular target: T5, Avi-KRAS G12R (1-169) GppNHp/RAF1 RBD-3xFLAG (52-151) (Homo sapiens, UniProt P01116, G12R); experiment: Raf1-KRAS G12R-GppNHP disruption HTRF assay (Biological Example 1); type: binding; details: KRAS G12R-GppNHp/RAF1 RBD HTRF
T5 construct: Avi-KRAS G12R (1-169)
Summary of the method: as §1

T2 sequence (P01116 2-169 isoform P01116-2 G12V): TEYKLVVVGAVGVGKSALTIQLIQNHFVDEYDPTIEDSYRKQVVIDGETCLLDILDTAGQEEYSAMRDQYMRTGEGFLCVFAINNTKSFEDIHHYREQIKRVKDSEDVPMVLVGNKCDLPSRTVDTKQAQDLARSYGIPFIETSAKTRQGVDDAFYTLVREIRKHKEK
T4 sequence (P01116 2-169 isoform P01116-2 G12C): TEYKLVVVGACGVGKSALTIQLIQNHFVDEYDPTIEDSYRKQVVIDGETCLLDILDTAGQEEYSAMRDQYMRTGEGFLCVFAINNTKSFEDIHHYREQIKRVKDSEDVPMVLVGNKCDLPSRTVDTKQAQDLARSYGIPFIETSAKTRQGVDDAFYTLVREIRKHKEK
T5 sequence (P01116 1-169 isoform P01116-2 G12R): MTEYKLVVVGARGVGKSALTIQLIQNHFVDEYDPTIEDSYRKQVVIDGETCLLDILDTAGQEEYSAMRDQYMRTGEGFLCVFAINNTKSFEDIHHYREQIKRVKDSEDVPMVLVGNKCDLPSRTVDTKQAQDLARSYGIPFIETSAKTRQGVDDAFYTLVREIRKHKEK
T3 sequence (P01116 1-169 isoform P01116-2 G12V): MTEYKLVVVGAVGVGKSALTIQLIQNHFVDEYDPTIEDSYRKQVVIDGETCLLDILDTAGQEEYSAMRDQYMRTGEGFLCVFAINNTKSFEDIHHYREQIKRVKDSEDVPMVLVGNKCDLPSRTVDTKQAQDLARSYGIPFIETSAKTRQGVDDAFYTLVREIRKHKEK
T1 sequence (P01116 1-169 isoform P01116-2 G12D): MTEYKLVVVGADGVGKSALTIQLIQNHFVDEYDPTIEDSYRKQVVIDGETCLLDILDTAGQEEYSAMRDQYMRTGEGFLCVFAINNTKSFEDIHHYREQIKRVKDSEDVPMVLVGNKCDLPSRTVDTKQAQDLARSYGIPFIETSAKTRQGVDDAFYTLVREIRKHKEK

| SMILES | IC50 [1] | IC50 [2] | IC50 [3] | IC50 (SW620 cells (KRAS G12V)) | IC50 (SW620 cells (KRAS G12V); pERK HTRF) | IC50 [4] | IC50 [5] |
| --- | --- | --- | --- | --- | --- | --- | --- |
| CN(C)C(=O)[C@@H]1CC[C@@H](N(C)c2nc(OC[C@@]34CCCN3C[C@H](F)C4)nc3c(F)c(-c4ccc(F)c5sc(N)c(C#N)c45)c(C(F)(F)F)cc23)C1 (atropisomer, axis not shown) [Compound 512] | 0.1 to 1 µM | 1 to 10 µM | 0.1 to 1 µM | < 0.1 µM | < 0.1 µM | 0.1 to 1 µM | 0.1 to 1 µM |
| CCN(c1nc(OC[C@@]23CCCN2C[C@H](F)C3)nc2c(F)c(-c3ccc(F)c4sc(N)c(C#N)c34)c(C(F)(F)F)cc12)[C@@H]1C[C@H](C)N(C(C)=O)C1 (atropisomer, axis not shown) [Compound 534] | 0.1 to 1 µM | 0.1 to 1 µM | 0.1 to 1 µM | < 0.1 µM | < 0.1 µM | 0.1 to 1 µM | 0.1 to 1 µM |
| CCN(c1nc(OC[C@@]23CCCN2C[C@H](F)C3)nc2c(F)c(-c3ccc(F)c4sc(N)c(C#N)c34)c(C(F)(F)F)cc12)[C@H]1C[C@H](C)N(C(=O)COC)C1 (atropisomer, axis not shown) [Compound 538] | < 0.1 µM | ≤ 0.1 µM | < 0.1 µM | < 0.1 µM | < 0.1 µM | ≤ 0.1 µM | < 0.1 µM |
| CCC(=O)N1C[C@H](N(CC)c2nc(OC[C@@]34CCCN3C[C@H](F)C4)nc3c(F)c(-c4ccc(F)c5sc(N)c(C#N)c45)c(C(F)(F)F)cc23)C[C@@H]1C (atropisomer, axis not shown) [Compound 533] | 0.1 to 1 µM | 0.1 to 1 µM | 0.1 to 1 µM | < 0.1 µM | < 0.1 µM | 0.1 to 1 µM | 0.1 to 1 µM |
| CCN(c1nc(OC[C@@]23CCCN2C[C@H](F)C3)nc2c(F)c(-c3ccc(F)c4sc(N)c(C#N)c34)c(C(F)(F)F)cc12)[C@@H]1C[C@@H]2CCC(=O)N2C1 [Compound 511] | 0.1 to 1 µM | 1 to 10 µM | 0.1 to 1 µM | < 0.1 µM | < 0.1 µM | 1 to 10 µM | 1 to 10 µM |

Further lines, results first:

| IC50 [1] | IC50 [2] | IC50 [3] | IC50 (SW620 cells (KRAS G12V)) | IC50 (SW620 cells (KRAS G12V); pERK HTRF) | IC50 [4] | IC50 [5] | SMILES |
| --- | --- | --- | --- | --- | --- | --- | --- |
| < 0.1 µM | ≤ 0.1 µM | < 0.1 µM | < 0.1 µM | < 0.1 µM | ≤ 0.1 µM | < 0.1 µM | CCN(c1nc(OC[C@@]23CCCN2C[C@H](F)C3)nc2c(F)c(-c3ccc(F)c4sc(N)c(C#N)c34)c(C(F)(F)F)cc12)[C@H]1C[C@H]2CN(C)C(=O)N2C1 (atropisomer, axis not shown; (aS)) [Compound 543, 2-amino-4-((S)-4-(ethyl((6S,7aS)-2-methyl-3-oxohexahydro-1H-pyrrolo[1,2-c]imidazol-6-yl)amino)-8-fluoro-2-(((2R,7aS)-2-fluorotetrahydro-1H-pyrrolizin-7a(5H)-yl)methoxy)-6-(trifluoromethyl)quinazolin-7-yl)-7-fluorobenzo[b]thiophene-3-carbonitrile] |
| < 0.1 µM | ≤ 0.1 µM | < 0.1 µM | < 0.1 µM | < 0.1 µM | ≤ 0.1 µM | < 0.1 µM | CCN1C[C@@H](N(CC)c2nc(OC[C@@]34CCCN3C[C@H](F)C4)nc3c(F)c(-c4ccc(F)c5sc(N)c(C#N)c45)c(C(F)(F)F)cc23)CC1=O [Compound 529, 2-amino-4-(4-(ethyl((S)-1-ethyl-5-oxopyrrolidin-3-yl)amino)-8-fluoro-2-(((2R,7aS)-2-fluorotetrahydro-1H-pyrrolizin-7a(5H)-yl)methoxy)-6-(trifluoromethyl)quinazolin-7-yl)-7-fluorobenzo[b]thiophene-3-carbonitrile] |
| < 0.1 µM | 0.1 to 1 µM | < 0.1 µM | < 0.1 µM | < 0.1 µM | 0.1 to 1 µM | < 0.1 µM | CCN(c1nc(OC[C@@]23CCCN2C[C@H](F)C3)nc2c(F)c(-c3ccc(F)c4sc(N)c(C#N)c34)c(C(F)(F)F)cc12)[C@H]1CCN(C(=O)c2ccon2)C1 (atropisomer, axis not shown) [Compound 554] |
| < 0.1 µM | 0.1 to 1 µM | 0.1 to 1 µM | < 0.1 µM | < 0.1 µM | 0.1 to 1 µM | < 0.1 µM | CCN(c1nc(OC[C@@]23CCCN2C[C@H](F)C3)nc2c(F)c(-c3ccc(F)c4sc(N)c(C#N)c34)c(C(F)(F)F)cc12)C1C[C@@H](C)N(C(=O)C2CC2)C1 (stereo partly shown) [Compound 516] |
| < 0.1 µM | ≤ 0.1 µM | < 0.1 µM | < 0.1 µM | < 0.1 µM | ≤ 0.1 µM | < 0.1 µM | CCN(c1nc(OC[C@@]23CCCN2C[C@H](F)C3)nc2c(F)c(-c3ccc(F)c4sc(N)c(C#N)c34)c(C(F)(F)F)cc12)[C@H]1C[C@H]2COC(=O)N2C1 (atropisomer, axis not shown; (aS)) [Compound 518, 2-amino-4-((S)-4-(ethyl((6S,7aS)-3-oxotetrahydro-1H,3H-pyrrolo[1,2-c]oxazol-6-yl)amino)-8-fluoro-2-(((2R,7aS)-2-fluorotetrahydro-1H-pyrrolizin-7a(5H)-yl)methoxy)-6-(trifluoromethyl)quinazolin-7-yl)-7-fluorobenzo[b]thiophene-3-carbonitrile] |
